The test system of experiment [1] is WT M1 parental cells (M1 murine myeloid leukemic cell line). The experiment is described as follows: IL-6 dose response (differentiation) in WT M1 cells. It counts as cell-based. The conditions noted are these: IL-6 dose response, Fig. 1a, approximate. The source says: (§1) The M1 murine myeloid leukemic cell line responds in a dose-dependent manner to IL-6 stimulation. Culturing M1 cells in IL-6 results in differentiation from monocytic-like progenitor cells into terminally differentiated macrophages that undergo cell death. […] This was in contrast to five other phosphatases that were similarly overexpressed. Using an Incucyte growth assay, the growth of wild-type M1 cells was compared to that of M1 cells overexpressing HALO-PTP1B both with and without IL-6 (Fig. 1b). […] As expected, there was no difference in the growth rate of any of these cell lines in the absence of IL-6. […] To confirm that the activation loop of the JAKs are indeed a target of PTP1B, dephosphorylation assays with activated recombinant JAK kinase domains were performed in vitro. All four members of the JAK family were dephosphorylated in a PTP1B-dependent manner although JAK1 was dephosphorylated to a lesser extent than others (Fig. 1c).
Fig. 1 PTP1B dephosphorylates the JAK activation loops. a IL-6 dose response curves for phosphatases overexpressed in the M1 cell line. […] (Top) Immunoblot (IB) probing for phosphorylated-JAK (P-JAK1 antibody) activation loop. (Bottom) Ponceau stained membrane to confirm equal input of proteins on gel. Data are representative of 3 independent experiments. d Overexpression of FLAG-JAK and HALO-PTP1B in HEK293T cells. […]

The subject of experiment [2] is M1 cells overexpressing PTP1B. Nature of the experiment: IL-6 dose response (differentiation) in M1 cells overexpressing PTP1B. Type of experiment: cell-based, murine. The following applies: IL-6 dose response, Fig. 1a, approximate.
Description: as §1, with “1c). […]” for “1c).”
Murine PTP1B with an N-terminal Halo tag was sub-cloned into the Tet-On pfTRE3G expression vector for generation of a stable doxycycline-inducible Halo-mPTP1B expressing HEK293T cell line. […] 24 h post-transfection, cells were lysed in sample reducing buffer and analysed by SDS-PAGE and immunoblot as above (dephosphorylation assays). […]

For the substance “IL-6: cytokine used to stimulate M1 cells”, the “EC50 of IL-6 (induction of differentiation)” value was ~2 ng/mL in experiment [1] and “approximately 10 ng/mL” in experiment [2].
